Data published in patent US6083973A, “Methods for inhibiting mucin secretion using RAR α selective antagonists” (Syntex (U.S.A.) Inc., priority 1999, dated 2000).

Assays:
RARγ [1] = target: T1, RARγ (Homo sapiens, UniProt P13631); assay: Transactivation of RARγ relative to ATRA; format: biochemical; conditions: both compounds at 10000 nM, read-out: Transactivation EC50 % MAX, RARγ
T1 sequence (P13631 1-454): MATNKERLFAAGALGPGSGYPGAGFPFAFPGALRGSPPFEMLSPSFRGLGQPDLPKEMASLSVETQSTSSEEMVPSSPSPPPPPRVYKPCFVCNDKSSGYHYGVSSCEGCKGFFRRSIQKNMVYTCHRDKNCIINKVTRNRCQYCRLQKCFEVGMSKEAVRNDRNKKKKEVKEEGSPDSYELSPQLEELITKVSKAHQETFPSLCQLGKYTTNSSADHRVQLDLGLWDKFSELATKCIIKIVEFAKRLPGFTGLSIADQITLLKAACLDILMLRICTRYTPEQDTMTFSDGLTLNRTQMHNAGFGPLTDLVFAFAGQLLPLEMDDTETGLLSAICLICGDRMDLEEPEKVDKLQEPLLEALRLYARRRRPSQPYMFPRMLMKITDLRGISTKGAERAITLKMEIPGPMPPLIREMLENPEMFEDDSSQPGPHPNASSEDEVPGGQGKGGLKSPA
Method: (§1) As used herein, the term "EC50 " of a retinoid for a retinoic acid receptor means the transactivation by the retinoid of the particular retinoic acid receptor under consideration relative to the transactivation of that same receptor by ATRA under identical conditions with both retinoids at the same concentration (1000 nM or 10000 nM depending on the highest concentration tested). Values are expressed as a percentage.
(§2) As used herein, the term "transactivation" refers to the ability of a retinoid to activate the transcription of a gene where the gene transcription is initiated by the binding of a ligand to the particular retinoic acid receptor being tested, i.e., RARα, RARβ, or RARγ. Determining the ability of a compound to transactivate a retinoic acid receptor may be performed by methods known to those of skill in the art. Examples of such methods are found in Bernard, et al. Biochem. Biophys. Res. Commun., 186:977-983 (1992) and C. Apfel, et al. Proc. Nat. Sci. Acad. (USA), 89:7129-7133 (1992).
(§3) EC50 's were determined relative to ATRA, with both compounds at 10000 nM. Values are expressed as a percentage of transactivation relative to ATRA.

RARα [2] = target: T2, RARα (Homo sapiens, UniProt P10276); assay: Transactivation of RARα relative to ATRA; format: biochemical; conditions: both compounds at 10000 nM, read-out: Transactivation EC50 % MAX, RARα
T2 sequence (P10276 1-462): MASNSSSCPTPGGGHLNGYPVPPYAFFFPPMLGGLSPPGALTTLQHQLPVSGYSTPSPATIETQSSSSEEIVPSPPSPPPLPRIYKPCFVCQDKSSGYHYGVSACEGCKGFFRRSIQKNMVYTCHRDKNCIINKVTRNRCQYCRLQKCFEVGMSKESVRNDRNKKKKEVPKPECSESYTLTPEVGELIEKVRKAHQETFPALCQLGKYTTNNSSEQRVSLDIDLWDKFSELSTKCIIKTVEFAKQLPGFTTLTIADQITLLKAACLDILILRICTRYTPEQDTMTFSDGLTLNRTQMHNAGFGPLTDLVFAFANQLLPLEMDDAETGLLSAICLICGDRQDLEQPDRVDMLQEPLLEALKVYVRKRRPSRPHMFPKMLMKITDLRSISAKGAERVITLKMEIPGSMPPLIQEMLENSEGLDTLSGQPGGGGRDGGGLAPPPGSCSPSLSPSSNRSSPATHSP
Method: as §1, §2, §3

RARγ [3] = target: T1, RARγ; assay: RAR binding, competition with labelled ATRA, γ
Method: (§4) The term "IC50 " of a retinoid for a retinoic acid receptor refers to the concentration of the retinoid at which binding by ATRA to that particular receptor is inhibited by 50%. Binding is measured by competition of the retinoid with labelled ATRA.
(§5) The RARα antagonist selectivity of a compound can be determined by routine ligand binding assays known to one of skill in the art such as described in C. Apfel, et al. Proc. Nat. Sci. Acad. (USA), 89:7129-7133 (1992); M. Teng, et al, J. Med. Chem., 40:2445-2451 (1997); and PCT Publication WO 96/30009.

RARα [4] = target: T2, RARα; assay: RAR binding, competition with labelled ATRA, α
Method: as §4, §5

RARβ [5] = target: T3, RARβ (Homo sapiens, UniProt P10826); assay: Transactivation of RARβ relative to ATRA; format: biochemical; conditions: both compounds at 10000 nM, read-out: Transactivation EC50 % MAX, RARβ
T3 sequence (P10826 1-455): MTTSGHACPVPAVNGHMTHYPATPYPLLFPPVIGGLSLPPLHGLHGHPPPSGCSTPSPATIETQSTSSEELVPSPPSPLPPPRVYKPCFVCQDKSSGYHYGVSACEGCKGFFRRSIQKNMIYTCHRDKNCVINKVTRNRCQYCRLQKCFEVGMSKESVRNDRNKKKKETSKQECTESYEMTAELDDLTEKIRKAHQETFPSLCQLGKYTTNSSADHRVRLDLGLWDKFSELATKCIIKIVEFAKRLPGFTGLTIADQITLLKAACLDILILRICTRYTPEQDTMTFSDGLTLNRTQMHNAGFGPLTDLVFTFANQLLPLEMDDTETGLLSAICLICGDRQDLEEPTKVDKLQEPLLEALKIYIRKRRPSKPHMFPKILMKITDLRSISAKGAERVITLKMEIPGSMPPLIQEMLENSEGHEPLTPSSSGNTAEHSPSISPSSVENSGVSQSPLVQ
Method: as §1, §2, §3

RARβ [6] = target: T3, RARβ; assay: RAR binding, competition with labelled ATRA, β
Method: as §4, §5

MUC5AC = MUC5AC gene transactivation in NHBE cells, RT-PCR; format: cell-based, human; conditions: even at the highest dose, 1×10^-6 M, Example 2
Method: (§6) Transactivation of mucin genes in normal primary human bronchial epithelial cells (NHBE) was performed as described by Gray et al. Am. J. Respir. Biol., 14:104-112 (1996). Primary human airway epithelial cells were cultured on porous Transwell membranes (Corning/Costar) in defined media in the absence of all-trans retinoic acid (ATRA) for 7 days. After seven days, fresh media±ATRA or selective retinoid, was added to the basal culture compartment to create an air-liquid interface (ALI). ATRA and/or selective retinoids were used at a concentration or 1×10^-7 M. The selective retinoids used were: Compound X (RARα selective agonist), RXR agonist (SRI 11217) and anti-AP1 retinoid (SRI 11302). After seven additional days of culture the media was harvested for analysis of secreted mucin gene product using specific ELISA as previously described (Gray et al). The cell layer was lysed using a guanidinium-based buffer (TRIZOL/Sigma) for RNA extraction and analysis. Amplification of MUC2 and MUC5AC RNA was performed by standard RT-PCR using appropriate selective primer and mimics pairs (Guzman et al., Am. J. Physiol. 271 (Lung Cell Mol Physiol.15): L1023-L1028 (1996) and PCR products were detected in ethedium bromide stained agarose gels.
(§7) Transactivation of mucin genes in NHBE was performed as described above with the exception that media was supplemented with RAR alpha (RARα), beta (RARβ), or gamma (RARγ)-selective retinoids on days 7 through day 14. The RAR alpha (RARα), beta (RARβ), or gamma (RARγ)-selective retinoids were compounds X, Y and CD-437 respectively.
(§8) Transactivation of mucin genes in NHBE was performed as described above. On days 7 through day 14 cells were cultured with 1×10^-6 M RARα antagonist, Compound Z, alone or in combination with 1×10^-7 M ATRA or RARα selective agonist, Compound X. The effects on mucin gene transactivation and expression were determined by RT-PCR and ELISA as described above. RARα selective antagonist, Compound Z, had no effect on MUC2 or MUC5AC gene expression.

MUC2 = MUC2 gene transactivation in NHBE cells, RT-PCR; format: cell-based, human; conditions: even at the highest dose, 1×10^-6 M, Example 2
Method: as §6, §7, §8

SMILES	Emax at 10 µM (RARγ [1]) [%]	Emax at 10 µM (RARα [2]) [%]	IC50 (RARγ [3]) [nM]	IC50 (RARα [4]) [nM]	% transactivation relative to ATRA at 10 µM (RARβ [5]) [%]	IC50 (RARβ [6]) [nM]	Induction of MUC5AC (MUC5AC)	Induction of MUC2 (MUC2)
CCCCCCCCc1cc2c(cc1/C(C)=C/C=C/C(C)=C/C(=O)O)C(C)(C)CCCS2(=O)=O	33	11	1000	47	35	4900		
CCCCCCCCc1cc2c(cc1/C(C)=C/c1ccc(C(=O)O)cc1)C(C)(C)CCS2(=O)=O	32	16	2300	70	15	1900		
CCCCCCCOc1cc2c(cc1/C(C)=C/C=C/C(C)=C/C(=O)O)C(C)(C)CCCS2(=O)=O	30	12	2200	180	20	6400		
CCCCCCCOc1cc2c(cc1-c1ccc3cc(C(=O)O)ccc3c1)C(C)(C)CCS2(=O)=O	14	8	1400	360	17	2800		
CCCCCCCOc1cc2c(cc1/C(C)=C/c1ccc(C(=O)O)cc1)C(C)CCCS2(=O)=O (stereo not drawn)		5	3000	530	7	5100		
CCCCCCCOc1cc2c(cc1\C(C)=C/C=C/C(C)=C/C(=O)O)C(C)(C)CCS2(=O)=O	20	24	> 10000	450	31	> 10000		
CCCCCCOc1cc2c(cc1/C(C)=C/C=C/C(C)=C/C(=O)O)C(C)(C)CCCS2(=O)=O	46	20	1300	250	32	2500		
O=C(O)c1ccc2cc(-c3ccc(O)c(C45CC6CC(CC(C6)C4)C5)c3)ccc2c1 [CD-437, 6-[3-(1-adamantyl)-4-hydroxyphenyl]-2-naphthalenecarboxylic acid]							minimal	minimal
CCCCCCCOc1cc2c(cc1/C(C)=C/c1ccc(C(=O)O)cc1)C(C)(C)CCS2(=O)=O [drawing 3]	9	16	4200	77	3			

Second part, led by results:

Emax at 10 µM (RARγ [1]) [%]	Emax at 10 µM (RARα [2]) [%]	IC50 (RARγ [3]) [nM]	IC50 (RARα [4]) [nM]	% transactivation relative to ATRA at 10 µM (RARβ [5]) [%]	IC50 (RARβ [6]) [nM]	SMILES	Induction of MUC5AC (MUC5AC)	Induction of MUC2 (MUC2)
36	27	< 10000	200	17	< 10000	CCCCCCCOc1cc2c(cc1/C(C)=C/C=C/C(C)=C/C(=O)O)C(C)(C)CCS2		
18	14	2500	190	7	3000	CCCCCCCOc1cc2c(cc1/C(C)=C/c1ccc(C(=O)O)cc1)C(C)(C)CCCS2(=O)=O		
20	18	2900	240	6	3500	CCCCCCCOc1cc2c(cc1C#Cc1ccc(C(=O)O)cc1)C(C)(C)CCS2(=O)=O		
11	13	3700	440	10	> 10000	CCCCCCCOc1cc2c(cc1/C(C)=C/C=C/C(C)=C/C(=O)O)C(C)(C)CC[S+]2[O-] (stereo not drawn)		
36	18	1800	200	13	3300	CCCCCCCCc1cc2c(cc1/C(C)=C/c1ccc(C(=O)O)cc1)C(C)(C)CCCS2(=O)=O		
25	8	2600	390	21	6900	CCCCCCCCOc1cc2c(cc1/C(C)=C/c1ccc(C(=O)O)cc1)C(C)(C)CCCS2(=O)=O		
54	14	2600	580	37	3800	CCCCCCOc1cc2c(cc1/C(C)=C/c1ccc(C(=O)O)cc1)C(C)(C)CCCS2(=O)=O		
24	11	3400	160	22	6900	CCCCCCCOc1cc2c(cc1/C(C)=C/c1ccc(C(=O)O)cc1)C(C)(C)CS2(=O)=O		
16	9	2400	27	14	5100	CCCCCCCOc1cc2c(cc1/C(C)=C/C=C/C(C)=C/C(=O)O)C(C)(C)CCS2(=O)=O [drawing 4]		
